The source of these data is ChEMBL document CHEMBL3826872, “Synthesis of benzimidazole based thiadiazole and carbohydrazide conjugates as glycogen synthase kinase-3β inhibitors with anti-depressant activity” (Bioorg Med Chem Lett, 2016).

The target of assay [1] is Glycogen synthase kinase-3 beta (Homo sapiens, UniProt P49841). As to the kind of experiment: Inhibition of recombinant human N-terminal His-tagged GSK-3beta expressed in Escherichia coli using glycogen synthase-2 as substrate and ATP measured after 30 mins by Kinase-Glo luminescent kinase assay. On the technique in general: Kinase-Glo measures the ATP left after a reaction by luminescence.

Assay [2] relates to Mus musculus. In words: Antidepressant activity in Swiss albino mouse assessed as duration of immobility at 50 mg/kg, po dosed 1 hr before test measured after 6 mins by tail suspension test (reference value: 183 sec).
Assay [3] relates to Mus musculus. As to the kind of experiment: Antidepressant activity in Swiss albino mouse assessed as reduction in duration of immobility at 50 mg/kg, po dosed 1 hr before test measured after 6 mins by forced swim test relative to control. It is filed as functional, organism-based.

Structures are written as SMILES. Active and inactive are the calls of the source. No cut-off for these calls is given here.

Broadly, the IC50 is the concentration needed to halve the response being measured.

Glycogen synthase kinase-3 beta, sequence (P49841 whole entry): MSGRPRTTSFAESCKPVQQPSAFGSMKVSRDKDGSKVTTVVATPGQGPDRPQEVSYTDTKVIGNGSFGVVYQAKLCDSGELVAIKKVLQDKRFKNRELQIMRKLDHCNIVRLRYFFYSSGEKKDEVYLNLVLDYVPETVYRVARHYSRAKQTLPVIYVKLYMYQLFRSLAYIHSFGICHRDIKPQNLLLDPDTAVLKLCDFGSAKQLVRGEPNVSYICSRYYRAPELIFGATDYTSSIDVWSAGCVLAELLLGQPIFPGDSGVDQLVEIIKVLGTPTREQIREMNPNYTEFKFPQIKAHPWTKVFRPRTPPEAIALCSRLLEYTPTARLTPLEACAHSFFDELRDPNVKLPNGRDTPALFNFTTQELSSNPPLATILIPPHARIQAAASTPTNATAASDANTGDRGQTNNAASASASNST

On to `Cc1nc2ccccc2n1Cc1nnc(NC2CCCCC2)s1`, for which the IC50 in assay [1] came to 406 nM. As to `COc1ccc(Nc2nnc(Cn3c(C)nc4ccccc43)s2)cc1`, the IC50 in assay [1] came to 151 nM.

Regarding `Cc1nc2ccccc2n1Cc1nnc(Nc2ccccc2Br)s1`, the IC50 in assay [1] amounted to 190 nM.

Regarding `Cc1nc2ccccc2n1CC(=O)NNC(=O)Cc1ccc([N+](=O)[O-])cc1`, in assay [1], the IC50 was determined as 205 nM.

As to `Cc1nc2ccccc2n1Cc1nnc(Nc2ccc(F)cc2)s1`, in assay [1], the IC50 came to 134 nM. As for `CCOc1ccc(Nc2nnc(Cn3c(C)nc4ccccc43)s2)cc1`, the IC50 in assay [1] stood at 293 nM. As to `Cc1nc2ccccc2n1CC(=O)NNC(=O)Cc1ccc(Cl)cc1`, the IC50 in assay [1] is 131 nM. Consider `Cc1nc2ccccc2n1CC(=O)NNC(=O)c1ccc[nH]1`, for which the IC50 in assay [1] stood at 124 nM. As for `Cc1ccccc1CC(=O)NNC(=O)Cn1c(C)nc2ccccc21`, in assay [1], the half-inhibitory concentration (IC50) stood at 92 nM. Also, in assay [2], the Time is reported as 168 s. As to `Cc1nc2ccccc2n1Cc1nnc(Nc2ccccc2)s1`, in assay [1], the IC50 was 157 nM. For `Cc1nc2ccccc2n1Cc1nnc(Nc2ccc([N+](=O)[O-])cc2)s1`, the IC50 in assay [1] is 107 nM. In addition, the Time in assay [2] was determined as 174 s. Take `Cc1nc2ccccc2n1CC(=O)NNC(=O)c1c[nH]c2ccccc12`: the IC50 in assay [1] worked out at 148 nM. Take `CCCCNc1nnc(Cn2c(C)nc3ccccc32)s1`: the IC50 in assay [1] turned out to be 582 nM. On to `Cc1nc2ccccc2n1Cc1nnc(Nc2ccc(Cl)cc2)s1`, for which the IC50 in assay [1] was 145 nM.

On to `Cc1nc2ccccc2n1CC(=O)NNC(=O)C(=O)c1c[nH]c2ccccc12`, for which the IC50 in assay [1] was 72 nM. Besides, the result in assay [3] was Active. The Time in assay [2] is 105 s. For the compound `COc1ccc(C(=O)CCC(=O)NNC(=O)Cn2c(C)nc3ccccc32)cc1`, the 50% inhibitory concentration (IC50) in assay [1] amounted to 561 nM. With `Cc1nc2ccccc2n1CC(=O)NNC(=O)Cc1cc2ccccc2[nH]1`, the IC50 in assay [1] came out at 135 nM.

Turning to `Cc1nc2ccccc2n1Cc1nnc(Nc2ccccc2Cl)s1`, the IC50 in assay [1] was determined as 122 nM. Take `Cc1nc2ccccc2n1CC(=O)NNC(=O)CCC(=O)c1ccc(Oc2ccccc2)cc1`: the IC50 in assay [1] is 80 nM. Moreover, the outcome in assay [3] was Active. For the same compound, in assay [2], the Time stood at 135 s.

Take `Cc1nc2ccccc2n1Cc1nnc(Nc2ccc(Br)cc2)s1`: the IC50 in assay [1] turned out to be 173 nM. On the same count and under the same terms, the same measure for `COc1ccccc1Nc1nnc(Cn2c(C)nc3ccccc32)s1`: 184 nM. On to `COc1ccc(CC(=O)NNC(=O)Cn2c(C)nc3ccccc32)cc1`, for which the IC50 in assay [1] worked out at 379 nM.

`Cc1nc2ccccc2n1CC(=O)NNC(=O)Cc1cccc2ccccc12`: the IC50 in assay [1] came to 157 nM. Same read-out and setting: the value for `Cc1nc2ccccc2n1CC(=O)NNC(=O)Cc1ccccc1` was 105 nM. Consider `Cc1nc2ccccc2n1Cc1nnc(Nc2ccccc2F)s1`, for which the IC50 in assay [1] was determined as 76 nM. Also, the outcome in assay [3] was Active. Moreover, the Time in assay [2] is reported as 120 s.

With `CNCCC(Oc1ccc(C(F)(F)F)cc1)c1ccccc1` (centres undefined) [FLUOXETINE], the Time in assay [2] was 153 s.
